Assay [1] deals with rat left atria. The assay can be described thus: Left atrial force of contraction / post-rest potentiation maximum force. Here is the method: Left atria were isolated from male Sprague-Dawley rats (325 to 400 g) under IP pentobarbital anesthesia (0.1 g/kg). Isolated left atria were superfused at 30° C. in Krebs-Henseleit (KH) buffer of the following mM composition: NaCl, 118; NaHCO3, 27; KCl, 4.8; MgSO4, 1.2; KH2PO4, 1.0; CaCl2, 1.8; and glucose, 11.1. Nearly isometric left atrial forces of contraction were measured as described.
The initial potentiated beat following prolonged rest (i.e., the PRP maximum force of contraction) reflects activator calcium available for SR release. The PRP response was used to obtain an indirect measure of left atrial SR calcium under our conditions.
Left atria (n=6) were superfused in KH, paced at 0.1 Hz, and subjected to PRP. Superfusion proceeded for another 35 min, and a second PRP was performed. These 2 forces were compared to assure the mechanical stability of our preparations.
One group (n=8) was superfused in KH, paced at 0.1 Hz, and their maximum force of contraction was measured. These atria were washed with KH containing 82 mM sodium, and a second PRP was performed 23 min later.
A second group (n=8) was paced at 0.1 Hz in KH and subjected to PRP. They were exposed to 22 μM 2-APB and, after the appearance of SMA, were washed with KH containing 22 μM 2-APB and 82 mM sodium. Superfusion continued for 23 min and a second PRP was performed.
Control 0.1 Hz paced atria (n=8) were subjected to PRP and exposed to 400 μM DIDS, and a second PRP was performed 23 min later.
A group of atria (n=8) were paced at 0.1 Hz in KH and subjected to PRP. They were exposed to 22 μM 2-APB, 400 μM DIDS was added to the superfusate after the appearance of SMA, and a second PRP was performed 23 min later.
Left atria (n=8 per group) were paced at 3 Hz and (i) titrated with 0 to 30 nM isoproterenol (Ahlquist, 1970) or (ii) exposed to 3 μM forskolin (Laurenza et al., 1980). Left atrial force and frequency of contraction, the time to peak tension and relaxation times were recorded after a 3-5 min exposure to forskolin or to any concentration of isoproterenol. The 3 Hz pacing stimulus was interrupted at the end of these protocols to measure SMEs.
Left atria (n=6 per group) were paced at 3 Hz, titrated with 0 to 300 nM (−)BayK 8644 ([…]-1,4-Dihydro-2,6-dimethyl-5-nitro-4-[2-(trifluormethyl)phenyl]-3-pyridinecarboxylic acid methyl ester; Franckowiak et al. 1985) or FPL-64176 ((2,5-Dimethyl-4-[2-(phenylmethyl)benzoyl]-111-pyrrole-3-carboxylic acid methyl ester; Zheng et al., 1991) and their mechanical function and rates of SMA were recorded after a 5 min exposure to any concentration of slow calcium channel activator.
To test whether ryanodine receptor calcium leak produces SMA, left atria (n=6 per group) were paced at 0.1 Hz, treated with 0 or 300 nM BayK 8644 for 5 min, and then exposed to 600 nM ryanodine (Sutko et al., 1997). Atrial mechanical function and rates of SMA were recorded 20 min after exposure to ryanodine.
Left atria (n=7) were paced at 3 Hz, treated with 120 μM ouabain (Illanes and Marshall, 1964), and any change in mechanical function was recorded at a new steady state, ˜10 min later. These atria were exposed to 20 μM 2-APB and their mechanical function and rates of SMA were recorded 10 min later.
To test whether zatebradine affects left atrial force of contraction, two groups of left atria (n=9 per group) were paced at 3 Hz and treated with 300 nM BayK 8644. Five minutes later one group was incubated with six increasing concentrations of zatebradine (10-100 μM) for 3-5 min at each concentration, and forces of contraction were recorded. A second group was treated with BayK 8644 but not zatebradine, and forces of contraction were recorded at corresponding times.

Assay [2] concerns rat left atrial appendage. Description: 2-APB-induced spontaneous mechanical activity (SMA/SMEs) in isolated superfused rat left atria / left atrial appendage.
Setting [3] is: no 2-APB, 30 nM isoproterenol, 3 μM forskolin, 300 nM BayK 8644 or FPL-64176, 120 μM ouabain, 600 nM ryanodine.

Several values for one entry are separate records, joined by “and”; a condition that tells them apart may be missing. Identical values can stand only once. Like-named read-outs stand apart in the source and are kept apart here.

As for `NCCOB(c1ccccc1)c1ccccc1` [2-APB, 2-aminoethoxydiphenyl borate], in assay [1], the “maximum force of atrial contraction” value is listed as “also decreased” and the “maximum force of left atrial contraction” value is “significantly decreased”. Besides, in assay [2], the “2-APB concentration giving intermittent increases in left atrial mechanical force independent of pacing (SMEs)” value is over 7.5 µM, the “2-APB concentration producing sporadic mechanical events in the absence of pacing stimulus” value was over 10 M, the SMEs during rest entry is given as “numerous SMEs during rest” and the “SMEs giving way to SMA” value was “Repeated SMEs”. Also, in assay [2], the “SMEs in slowly paced preparations” value is “only few SMEs”; the “rate of SMA” value is 47±6 contractions/min and ~50 contractions/min.
As to `COC(=O)C1=C(C)NC(C)=C([N+](=O)[O-])[C@H]1c1ccccc1C(F)(F)F` [BayK 8644, (45)-1,4-Dihydro-2,6-dimethyl-5-nitro-4-[2-(trifluormethyl)phenyl]-3-pyridinecarboxylic acid methyl ester], in assay [1], the “left atrial force of contraction with agent alone” value (shortened to “left atrial force of contraction”) is “increase left atrial force of contraction”. Moreover, the “ectopic activity (SMEs/SMA/STA) with agent alone” value (from here on “ectopic activity (SMEs/SMA/STA)”) in assay [2] is on record as “SMA or SMEs do not occur”.
The like results for `COC(=O)c1c(C)[nH]c(C)c1C(=O)c1ccccc1Cc1ccccc1` [FPL-64176, 2,5-Dimethyl-4-[2-(phenylmethyl)benzoyl]-111-pyrrole-3-carboxylic acid methyl ester] were, in that order, “increase left atrial force of contraction” and “SMA or SMEs do not occur”.
For the molecule `CC(C)NCC(O)c1ccc(O)c(O)c1` (stereo not drawn) [isoproterenol], the “left atrial force of contraction” value in assay [1] (setting [3]) is recorded as “increase left atrial force of contraction”. Further, the “ectopic activity (SMEs/SMA/STA)” value in assay [2] (setting [3]) is “quiescent in the absence of pacing”.
`C[C@@H]1O[C@@H](O[C@H]2C[C@@H](O)[C@]3(CO)[C@H]4[C@H](O)C[C@]5(C)[C@@H](C6=CC(=O)OC6)CC[C@]5(O)[C@@H]4CC[C@]3(O)C2)[C@H](O)[C@H](O)[C@H]1O` [ouabain]: in assay [1] (setting [3]), the “left atrial force of contraction” value is given as “doubles their force of contraction”. Besides, the “ectopic activity (SMEs/SMA/STA)” value in assay [2] (setting [3]) was “does not affect their mechanical stability”.
In the case of ryanodine, in assay [1], the “left atrial force of contraction” value is reported as “Time-dependent decreases in force of contraction”. The “ectopic activity (SMEs/SMA/STA)” value in assay [2] is listed as “SMEs, SMA or STA does not occur”.

The record behind these values is US20110144125A1, “Anti-Arrhythmia Agents, Methods of Their Use, Methods of Their Identification and Kits Therefore” (THE UAB RESEARCH FOUNDATION, priority 2008, published 2011).
